This is an account of results in patent US20070032448A1, “Sugar modified nucleosides as viral replication inhibitors” (priority 2002, published 2007).

The EC50 is the concentration that produces a half-maximal response. In general, AUC refers to concentration integrated over time. A high value points to more exposure. In general, Cmax refers to the peak of the concentration-time curve. As a reminder, the Tmax is the time at which the peak concentration occurs. As a reminder, the bioavailability is dose-corrected exposure relative to a reference, in per cent.

Where two headings read alike, the source gives them in different places.

In data set [1] the test system is HCV replicon RNA in replicon cells (Huh-7). The data set can be described thus: HCV replicon assay. Type of data set: cell-based, Hepatitis C virus. As for the experimental part: The replicon cells (Huh-7) contain replicating HCV replicon RNA, which was modified in the structural region (replacing the structural region with a neomycin resistance marker). Survival of the replicon cells under G418 selection relies on the replication of HCV RNA and subsequently expression of neomycin phosphoryltransferase. The ability of modified nucleoside libraries and compounds to suppress HCV RNA replication was determined using the Quantigene Assay Kit from Bayer. The assay measures the reduction of HCV RNA molecules in the treated cells. Replicon cells were incubated at 37° C. for 3 days in the presence of nucleoside libraries and compounds before harvested for detection. An HCV subgenomic replicon cell line was provided by Dr. Bartenschlager. The assay protocol was modified based on literature procedure (V. Lohmann, F. Korner, J. O. Koch, U. Herian, L. Theilmann, R. Bartenschlager, Science, 1999, 285, 110-113).
On the technique in general: A replicon is a self-replicating genome or part of one, used to study replication in cells.

A short description of data set [2]: Pharmacokinetics, intravenous and oral dosing. In kind it is in vivo.
The subject of data set [3] is mice. The data set can be described thus: Toxicity in mice. Type of data set: in vivo. Particulars: 160 mg/kg dosing.
[4] abbreviates: Hepatitis C virus, Huh-7, 72 h, read-out: HCV Replicon EC50.
Where [5] appears, read: 2′-beta-6-substituted adenosine derivatives, Huh-7 replicon cells, 3 days, read-out: HCV Replicon EC50.
Setting [6] is: Hepatitis C virus, 72 h, 2′-beta-methyl cytidine and uridine derivatives, Huh-7 replicon cells, 3 days, read-out: HCV REPLICON EC50.

Take `CSc1ncnc2c1ncn2[C@@H]1O[C@H](CO)[C@@H](O)[C@]1(O)C1CC1` [Compound P19, 9-(2-C-Cyclopropyl-β-D-ribofuranosyl)-6-methylmercaptopurine]: in data set [1] (setting [4]), the EC50 is greater than 100 µM.
Take `CNc1ncnc2c1ncn2[C@@H]1O[C@H](CO)[C@@H](O)[C@@]1(C)O` [Compound P22, N^6-Methyl-9H-(2′-C-methyl-β-D-ribofuranosyl)adenine]: the EC50 in data set [1] (setting [5]) was less than 10 µM.
As for `C=C[C@@]1(O)[C@H](O)[C@@H](CO)O[C@H]1n1cnc2c(N)ncnc21` [Compound P11, 2′-C-Vinyladenosine], the EC50 in data set [1] (setting [4]) is greater than 100 µM.
On to `CN(C)c1ncnc2c1ncn2[C@@H]1O[C@H](CO)[C@@H](O)[C@]1(O)C1CC1` [Compound P18, N^6-Dimethyl-2′-C-cyclopropylyladenosine], for which, in data set [1] (setting [5]), the EC50 was greater than 100 µM.
As to `CC[C@@]1(O)[C@H](O)[C@@H](CO)O[C@H]1n1cnc2c(NC)ncnc21` [Compound P7, N^6-Methyl-2′-C-ethyladenosine], in data set [1] (setting [4]), the EC50 is greater than 100 µM.
Turning to `CN(C)c1ccn([C@@H]2O[C@H](CO)[C@@H](O)[C@@]2(C)O)c(=O)n1` [Compound P41], the EC50 in data set [1] (setting [6]) is greater than 100 µM.
Turning to `CC[C@@]1(O)[C@H](O)[C@@H](CO)O[C@H]1n1cnc2c(SC)ncnc21` [Compound P9, 9-(2-C-Ethyl-β-D-ribofuranosyl)-6-methylmercaptopurine], the EC50 in data set [1] (setting [4]) was greater than 100 µM.
For the compound `CSc1ncnc2c1ncn2[C@@H]1O[C@H](CO)[C@@H](O)[C@@]1(C)O` [Compound P24, 6-Thiomethyl-9H-(2′-C-methyl-β-D-ribofuranosyl)adenine], in data set [2] (in vivo), the “increase of bioavailability compared to Ribavirin” value is “approximately 4 times”. In data set [2] (intravenous dosing), this compound gave an AUC of 1950.6 ng·h/mL, a C0 of 3452.4 ng/mL and a t1/2b of 25.8 min. In data set [2] (oral dosing), the AUC was 1953.5 ng·h/mL, the Cmax came out at 1085.0 ng/mL, the Tmax came out at 45 min and the t1/2β amounted to 71.4 min. The same compound had a bioavailability in data set [2] (oral vs intravenous dosing) of 100%. Also, in data set [3], the “body weight, food consumption, and behavior” value is given as “normal”; the “tissue and organ abnormalities” value is “No tissue and organ abnormalities were observed”; the toxicity result is given as “did not show toxicity”. Besides, in data set [1] (setting [5]), the EC50 is less than 10 µM.
Take `CNc1ncnc2c1ncn2[C@@H]1O[C@H](CO)[C@@H](O)[C@]1(O)C1CC1` [Compound P17, N^6-Methyl-2′-C-cyclopropylyladenosine]: the EC50 in data set [1] (setting [5]) was greater than 100 µM.
Regarding `COc1ncnc2c1ncn2[C@@H]1O[C@H](CO)[C@@H](O)[C@]1(O)C1CC1` [Compound P20, 9-(2-C-cyclopropyl-β-D-ribofuranosyl)-6-methoxypurine], the EC50 in data set [1] (setting [4]) was greater than 100 µM.
On the same count and under the same terms, to `Nc1ncnc2c1ncn2[C@@H]1O[C@H](CO)[C@@H](O)[C@]1(O)C1CC1` [Compound P16, 2′-C-Cyclopropyladenosine] belongs greater than 100 µM.
As to `CNc1ccn([C@@H]2O[C@H](CO)[C@@H](O)[C@@]2(C)O)c(=O)n1` [Compound P40], the EC50 in data set [1] (setting [6]) is greater than 100 µM.
The same measure, in the same setting: the same measure for `CNc1nc(=O)n([C@@H]2O[C@H](CO)[C@@H](O)[C@@]2(C)O)cc1C` [Compound P43]: greater than 100 µM.
On to `C=C[C@@]1(O)[C@H](O)[C@@H](CO)O[C@H]1n1cnc2c(SC)ncnc21` [Compound P14, 9-(2-C-Vinyl-β-D-ribofuranosyl)-6-methylmercaptopurine], for which the EC50 in data set [1] (setting [4]) is greater than 100 µM.
Turning to `COc1ncnc2c1ncn2[C@@H]1O[C@H](CO)[C@@H](O)[C@@]1(C)O` [Compound P25], in data set [1] (setting [5]), the EC50 is less than 10 µM.
Take `C[C@@]1(O)[C@H](O)[C@@H](CO)O[C@H]1n1ccc(O)nc1=O` [Compound P39]: in data set [1] (setting [6]), the EC50 was greater than 100 µM.
The same measure, in the same setting: to `Cc1cn([C@@H]2O[C@H](CO)[C@@H](O)[C@@]2(C)O)c(=O)nc1N` [Compound P38] belongs greater than 100 µM.
As to `C=C[C@@]1(O)[C@H](O)[C@@H](CO)O[C@H]1n1cnc2c(N(C)C)ncnc21` [Compound P13, N^6-Dimethyl-2′-C-vinyladenosine], in data set [1] (setting [5]), the half-maximal effective concentration (EC50) was greater than 100 µM.
In the case of `CC[C@@]1(O)[C@H](O)[C@@H](CO)O[C@H]1n1cnc2c(N)ncnc21` [Compound P6, 2′-C-Ethyladenosine], the EC50 in data set [1] (setting [4]) was greater than 100 µM.
Turning to `Cc1cn([C@@H]2O[C@H](CO)[C@@H](O)[C@@]2(C)O)c(=O)nc1O` [Compound P42], in data set [1] (setting [6]), the EC50 was greater than 100 µM.
On to `C=C[C@@]1(O)[C@H](O)[C@@H](CO)O[C@H]1n1cnc2c(NC)ncnc21` [Compound P12, N^6-Methyl-2′-C-vinyladenosine], for which the EC50 in data set [1] (setting [4]) was greater than 100 µM.
In the case of `CC[C@@]1(O)[C@H](O)[C@@H](CO)O[C@H]1n1cnc2c(OC)ncnc21` [Compound P10, 9-(2-C-ethyl-β-D-ribofuranosyl)-6-methoxy-purine], the EC50 in data set [1] (setting [4]) was greater than 100 µM.
Regarding `C[C@@]1(O)[C@H](O)[C@@H](CO)O[C@H]1n1ccc(N)nc1=O` [Compound P37, 2′-β-C-Methylcytidine], in data set [1] (setting [6]), the EC50 is less than 10 µM.
In the case of `C[C@@]1(O)[C@H](O)[C@@H](CO)O[C@H]1n1cnc2c(N)ncnc21` [Compound P21], in data set [1] (setting [5]), the EC50 was less than 10 µM.
Consider `CC[C@@]1(O)[C@H](O)[C@@H](CO)O[C@H]1n1cnc2c(N(C)C)ncnc21` [Compound P8, N^6-Dimethyl-2′-C-ethyladenosine], for which, in data set [1] (setting [5]), the concentration for a half-maximal effect (EC50) is greater than 100 µM.
On to `Cc1cn([C@@H]2O[C@H](CO)[C@@H](O)[C@@]2(C)O)c(=O)nc1N(C)C` [Compound P44], for which, in data set [1] (setting [6]), the EC50 was greater than 100 µM.
Consider `C=C[C@@]1(O)[C@H](O)[C@@H](CO)O[C@H]1n1cnc2c(OC)ncnc21` [Compound P15, 9-(2-C-vinyl-β-D-ribofuranosyl)-6-methoxy-purine], for which the EC50 in data set [1] (setting [4]) is greater than 100 µM.
For `CN(C)c1ncnc2c1ncn2[C@@H]1O[C@H](CO)[C@@H](O)[C@@]1(C)O` [Compound P23, N^6-Dimethyl-9H-(2′-C-methyl-β-D-ribofuranosyl)adenine], the EC50 in data set [1] (setting [5]) was less than 10 µM.
